Reference: paper PMC10377753, “Pharmacokinetic and pharmacodynamic properties of polymyxin B in Escherichia coli and Klebsiella pneumoniae murine infection models” (Journal of Antimicrobial Chemotherapy, 2023)
Structures can show the parent of a compound that is named as a salt. Bridge positions count the residues as written; N and C are the ends. Square brackets hold non-standard residues; d marks the D form. Peptide text beside a SMILES is read from it. * marks the point of attachment. X1 = CC[C@H](C)CCCCC(=O)*; Dab = NCC[C@H](N)C(=O)O

Assays:
[1] = Plasma PK after single subcutaneous dose in infected neutropenic mice, population PK model; assay type: in vivo; conditions: for Time up to which plasma levels were detectable: LOQ 0.2 mg/L
Method: Mice were injected subcutaneously with a 0.1 mL single dose of polymyxin B 2 h after infection (t = 0). The PK of polymyxin B ranging between 0.5 and 64 mg/kg were determined in two mice per dose level. Mice were separated into two groups, with four dose levels studied in the thigh infection model (0.5, 2, 8, 32 mg/kg) and four dose levels studied in the lung infection model (1, 4, 16, 64 mg/kg). At t = 0, two mice were humanely euthanized to determine the bacterial load in the infected organ at the start of infection. At 10 different timepoints, blood was collected under isoflurane anaesthesia, in K3E EDTA tubes (Sarstedt, Nümbracht, Germany) through orbital sinus bleeding, which was immediately followed by cervical dislocation. The collected blood samples were centrifuged immediately at 15 871 RCF for 5 min at 4°C. Plasma was stored at −80°C until analysis.
Polymyxin B concentrations in plasma, BAL and ultrafiltrates were determined by a validated LC-MS/MS method,[18] with a lower limit of quantification (LOQ) of 0.2 mg/L for plasma and 0.05 mg/L for BAL fluid and ultrafiltrates. In this assay, 0.1 mL of plasma or 0.05 mL of BAL fluid or ultrafiltrates was added to 0.05 mL of drug-free plasma, and was mixed with 0.75 mL of phosphate buffer (pH 7.2) and 0.01 mL of internal standard (colistin sulphate, Merck KGaA, Darmstadt, Germany) at 6.25 mg/L for plasma and 5 mg/L for BAL fluid and ultrafiltrates. The samples were briefly vortexed and then centrifuged at 3000 rpm for 5 min. The supernatants (0.8 mL) were loaded onto solid-phase extraction columns (Oasis HLB solid-phase extraction cartridges, 1 mL, 30 mg, Waters, Saint-Quentin-en-Yvelines, France), preconditioned with 1 mL of methanol and followed by 1 mL of water. Columns were washed with 1 mL of water and dried under nitrogen pressure. The analytes were eluted with 0.5% formic acid in methanol and they were evaporated at 45°C under a gentle nitrogen jet stream. The residues were dissolved in 0.1 mL of 0.1% formic acid in water and analysed by LC-MS/MS. The system included an Alliance Waters 2695 LC system module (Waters) coupled with an API Quattro Micro (Waters). Polymyxin B was analysed on an XBridge C18 column (5 µm, 2.1 × 150 mm; Waters). The mobile phase A consisted of 0.1% formic acid in water, and mobile phase B was 0.1% formic acid in acetonitrile. The gradient for mobile phases A and B were respectively set at 75% and 25% with a flow rate of 0.2 mL/min. Electrospray ionization in positive mode was used for the detection of polymyxin B. Ions were analysed in the multiple reaction monitoring, and the following transitions were inspected: m/z 602.1→101 for polymyxin B1, m/z 595.1→101 for polymyxin B2, m/z 585.1→101 for CSTA and m/z 578.1→101 for CSTB. Calibration curves of polymyxin B ranged from 0.1 to 10 mg/L for plasma and ultrafiltrates, and were quantified with a quadratic regression mode. The intraday variability was characterized at four levels (0.3, 1, 2.5 and 10 mg/L) with a precision and bias of <20% for the lowest level, and <15% for the others.
A population PK model was developed using non-linear mixed-effects modelling (NONMEM, version 7.4.2 ICON Development Solutions, Ellicott City, MD, USA). The analysis was performed using the FOCE + I method on logarithmically transformed concentrations and data below the LOQ were omitted. Parameters were calculated for a virtual 1 kg mouse, resulting in pharmacokinetic parameters corresponding on a per kg base. In the first step a structural model was developed, using one- and two-compartment models. The absorption following subcutaneous injections was described using an absorption rate constant (ka). Typical values for central (Vc) and peripheral volume of distribution (Vp), CL and intercompartmental clearance (Q) were estimated. As bioavailability (F) could not be estimated, CL, Vc, Q, and Vp values corresponded to the ratios CL/F, Vc/F, Q/F and Vp/F, respectively. […]

plasma proteins [2] = conditions: mouse, spiked pooled plasma, ultracentrifugation; cited from earlier work
From the text: Protein binding of polymyxin B is known to be high. However, a difference was found between the current study (unbound fraction 20%) compared with previous studies (8.6% for polymyxin B,[8] 8.4% for colistin[5]), which affects the PTA. In the present study, ultrafiltration was used for determining the unbound fraction, whilst ultracentrifugation was used in the other studies. With the ultrafiltration method, correction for the NSB to the ultrafiltration membranes was needed. In addition, differences in mouse plasma used for determination of polymyxin B protein binding may (partly) explain the ...

[3] = Epithelial lining fluid (ELF) concentration from BAL, urea correction; assay type: in vivo; conditions: lung-infected mice
Method: Bronchoalveolar lavage (BAL) was performed immediately after blood collection. The trachea was exposed by a ventral vertical incision in the neck for insertion of a cannula. Lungs were instilled two times with 1 mL of sterile saline, and the fluid was recovered immediately. The recovered lavages were pooled, directly placed on ice, and subsequently stored at −80°C.
By taking BAL fluid samples and a plasma sample at the same timepoint, the concentrations in ELF could be determined. The ratio of the urea concentration in BAL to the concentration in plasma was used to determine the ELF concentration.[17] In short, polymyxin B concentration in ELF was calculated by multiplying the polymyxin B concentration in the BAL fluid by the ratio of the urea concentration in the plasma and BAL fluid: [polymyxin B]ELF = [polymyxin B]BAL × ([urea]Plasma/[urea]BAL). Urea concentrations were measured with an enzymatic assay (QuantiChrom urea assay kit; DIUR-100; BioAssay Systems, Hayward, CA, USA).
Polymyxin B concentrations in plasma, BAL and ultrafiltrates were determined by a validated LC-MS/MS method,[18] with a lower limit of quantification (LOQ) of 0.2 mg/L for plasma and 0.05 mg/L for BAL fluid and ultrafiltrates. […] The residues were dissolved in 0.1 mL of 0.1% formic acid in water and analysed by LC-MS/MS. […] Polymyxin B was analysed on an XBridge C18 column (5 µm, 2.1 × 150 mm; Waters). […]

plasma proteins [4] = assay: Plasma protein binding by ultrafiltration; assay type: in vitro ADME; conditions: plasma of infected mice treated with polymyxin B, corrected for non-specific binding, LC-MS/MS, mean ± SD, no concentration dependency
Method: The binding of polymyxin B to plasma proteins was determined via ultrafiltration. Polymyxins have a tendency to non-specifically bind to different kinds of material, including ultrafiltration filters. Thus, to correct for polymyxin B loss on the filter, an experiment was performed in which ultrafiltrated (UF) phosphate buffer was spiked with multiple polymyxin B concentrations (ranging from 0.75 to 8 mg/L) and subsequently concentrations were measured. […] Using this relationship, the non-specific binding (NSB) for each measured polymyxin B UF concentration was calculated. Correction for the measured polymyxin B UF concentration using this NSB value was according to the following formula: polymyxin B UF Corrected Concentration = Measured polymyxin B UF Concentration × (1−NSB).
Polymyxin B concentrations in plasma, BAL and ultrafiltrates were determined by a validated LC-MS/MS method,[18] with a lower limit of quantification (LOQ) of 0.2 mg/L for plasma and 0.05 mg/L for BAL fluid and ultrafiltrates. […] The residues were dissolved in 0.1 mL of 0.1% formic acid in water and analysed by LC-MS/MS. […] Polymyxin B was analysed on an XBridge C18 column (5 µm, 2.1 × 150 mm; Waters). […] Calibration curves of polymyxin B ranged from 0.1 to 10 mg/L for plasma and ultrafiltrates, and were quantified with a quadratic regression mode. […]

SMILES: CC[C@H](C)CCCCC(=O)N[C@@H](CCN)C(=O)N[C@H](C(=O)N[C@@H](CCN)C(=O)N[C@H]1CCNC(=O)[C@H]([C@@H](C)O)NC(=O)[C@H](CCN)NC(=O)[C@H](CCN)NC(=O)[C@H](CC(C)C)NC(=O)[C@@H](Cc2ccccc2)NC(=O)[C@H](CCN)NC1=O)[C@@H](C)O [polymyxin B, Polymyxin B sulphate salt] (X1-[Dab]T[Dab][Dab][Dab][dF]L[Dab][Dab]T; lactam 4-C)
- ka, absorption rate constant for 10 mg/kg dose ([1]; infected neutropenic mice, single s.c. dose 0.5–64 mg/kg, plasma LC-MS/MS, population PK (NONMEM), one-compartment, first-order absorption): 1.63 h⁻¹
- Time up to which plasma levels were detectable ([1]; mouse, s.c., doses 16–64 mg/kg): up to 8 h
- Time up to which plasma levels were detectable ([1]; mouse, s.c., doses up to 8 mg/kg): up to 6 h
- Time to peak (Tmax) ([1]; mouse, s.c., thigh and lung infection model): ≤ 2 h
- CL/F ([1]; mouse, sc, 10 mg/kg, infected neutropenic mice, single s.c. dose 0.5–64 mg/kg, plasma LC-MS/MS, population PK (NONMEM), one-compartment, read-out: CL/F, clearance for 10 mg/kg dose (converted)): 6.4 mL/min/kg
- Vd/F ([1]; mouse, sc, infected neutropenic mice, single s.c. dose 0.5–64 mg/kg, plasma LC-MS/MS, population PK (NONMEM), one-compartment, read-out: Vc/F, central volume of distribution): 0.774 L/kg
- Dose on CL, power on covariate effect of dose on CL ([1]; population PK model, CL = 0.384 × (DOSE/10)^−0.26): −0.26
- Dose on ka, power on covariate effect of dose on ka ([1]; population PK model, ka = 1.63 × (DOSE/10)^−0.407): −0.407
- Unbound fraction (plasma proteins [2]): 8.6%
- Concentration in ELF ([3]; 64 mg/kg s.c., BAL, urea correction, data not shown): Low levels
- Concentration in ELF ([3]; other doses (1, 4, 16 mg/kg s.c.), LOQ 0.05 mg/L for BAL fluid): below the LOQ
- %fu (percent fraction unbound) (plasma proteins [4]): 20% ± 4.0%
